Read-outs that look alike come from different tables or passages of the source.
Assays:
Format in all cases: cell-based
[1] = test system: AG-resistant Enterobacterales; assay: Antibacterial surveillance of clinical isolates (MIC50/90)
Experimental: (§1) Minimum inhibitory concentrations for representative example compounds herein were determined by a broth microdilution method in accordance with the Clinical and Laboratory Standards Institute (CLSI) guidelines. In brief, organism suspensions were adjusted to a 0.5 McFarland standard to yield a final inoculum between 3×10^5 and 7×10^5 colony-forming units (CFU)/mL. The inoculum was prepared by suspension of a colony from an agar plate that was prepared the previous day. Compound dilutions and inoculum were prepared in sterile, cation adjusted Mueller-Hinton Broth (Beckton Dickinson).
(§2) Bacteria were suspended in sterile saline and added to each assay plate to obtain a final concentration of 5×10^5 CFU/mL. An inoculum volume of 100 μL was added to wells containing 100 μL of broth with 2-fold serial dilutions of the test compound. All inoculated microdilution trays were incubated in ambient air at 35° C. for 18-24 hours. Following incubation, the lowest concentration of the compound that prevented visible growth (OD 600 nm<0.05) is recorded was the MIC. […] Performance of the assay was monitored by the use of laboratory quality-control strains and a standard compound with a defined MIC spectrum (neomycin), in accordance with CLSI guidelines.
(§3) Several compounds of the disclosure (Compound 1, 2, and 3) were further evaluated against several hundred bacterial isolates (isolated in the United States and Europe, 1:1) selected from the SENTRY Antimicrobial Surveillance Program (JMI Laboratories, North Liberty, Iowa). The set of clinical isolates included 300 randomly selected Enterobacterales, 103 randomly selected P. aeruginosa, 100 randomly selected A. baumannii-calcoaceticus, 20 randomly selected Methicillin-sensitive S. aureus (MSSA), and 30 randomly selected Methicillin-resistant S. aureus (MRSA). In addition, 101 Enterobacterales and 50 P. aeruginosa isolates with genetically defined mechanisms of aminoglycoside resistance were included. The MIC values at which ≥50% (MIC50) and ≥90% (MIC90) of isolates within a given set are inhibited were determined for each compound against each set of organisms.

[2] = test system: Methicillin-sensitive S. aureus (MSSA); assay: as above; conditions: Staphylococcus aureus, MSSA, 20 isolates
Experimental: as §1, §2, §3

[3] = test system: Methicillin-resistant S. aureus (MRSA); assay: as above; conditions: Staphylococcus aureus, MRSA, 30 isolates
Experimental: as §1, §2, §3

[4] = test system: P. aeruginosa; assay: as above; conditions: Pseudomonas aeruginosa, 103 isolates
Experimental: as §1, §2, §3

[5] = test system: AG-resistant P. aeruginosa; assay: as above; conditions: Pseudomonas aeruginosa, 50 isolates with defined aminoglycoside resistance
Experimental: as §1, §2, §3

[6] = test system: A. baumannii-calcoaceticus; assay: as above; conditions: 100 isolates
Experimental: as §1, §2, §3

[7] = test system: P. mirabilis; assay: MIC broth microdilution (CLSI); conditions: Proteus mirabilis; strain APMI1048, MDR Clinical isolate (CDC CRE panel), CDC AR Bank 0159
How it was run: (§4)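 First, a colony from the previous day's agar plate is suspended in saline to 0.5 McFarland. Next, this is added to cation-adjusted Mueller-Hinton broth containing 2-fold serial compound dilutions, giving 5×10^5 CFU/mL. Trays then incubate 18-24 hours at 35° C.; MIC is the lowest concentration without visible growth (OD 600 nm<0.05).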

[8] = test system: S. enterica; assay: MIC broth microdilution (CLSI); conditions: Salmonella enterica, read-out: Activity (MIC)
How it was run: as §4

[9] = test system: K. pneumoniae; assay: MIC broth microdilution (CLSI)
How it was run: as §4

[10] = test system: K. aerogenes; assay: MIC broth microdilution (CLSI); conditions: Klebsiella aerogenes; strain AEAE1042, MDR Clinical isolate (CDC CRE panel), CDC AR Bank 0161
How it was run: as §4

[11] = test system: E. cloacae; assay: MIC broth microdilution (CLSI); conditions: Enterobacter cloacae; strain AECL1089, MDR Clinical isolate (CDC CRE panel), CDC AR Bank 0154
How it was run: as §4

[12] = test system: A. baumannii; assay: MIC broth microdilution (CLSI); conditions: Acinetobacter baumannii
How it was run: as §4

[13] = test system: C. freundii; assay: MIC broth microdilution (CLSI); conditions: Citrobacter freundii, read-out: Activity (MIC)
How it was run: as §4

[14] = test system: E. coli; assay: MIC broth microdilution (CLSI); conditions: Escherichia coli
How it was run: as §4

[15] = test system: S. aureus; assay: MIC broth microdilution (CLSI); conditions: for MIC: Staphylococcus aureus
How it was run: as §4

[16] = test system: P. aeruginosa; assay: MIC broth microdilution (CLSI); conditions: Pseudomonas aeruginosa
How it was run: as §4

NCC[C@H](O)C(=O)N[C@@H]1[C@@H](O)[C@H](N)[C@@H](O[C@H]2O[C@H](CN)CC[C@H]2N)[C@H](O[C@@H]2O[C@H](CO)[C@@H](O[C@H]3O[C@@H](CN)[C@@H](O)[C@H](O)[C@H]3N)[C@H]2O)[C@H]1O [Compound 2, (S)-4-amino-N-((1R,2S,3S,4R,5R,6S)-3-amino-5-(((2S,3R,4S,5R)-4-(((2R,3R,4R,5S,6S)-3-amino-6-(aminomethyl)-4,5-dihydroxytetrahydro-2H-pyran-2-yl)oxy)-3-hydroxy-5-(hydroxymethyl)tetrahydrofuran-2-yl)oxy)-4-(((2R,3R,6S)-3-amino-6-(aminomethyl)tetrahydro-2H-pyran-2-yl)oxy)-2,6-dihydroxycyclohexyl)-2-hydroxybutanamide]
MIC50 [1]: < 16 µg/mL
MIC90 [1]: < 16 µg/mL
MIC50 ([2]; read-out: MIC50): < 16 µg/mL
MIC90 ([2]; read-out: MIC90): < 16 µg/mL
MIC50 ([3]; read-out: MIC50): < 16 µg/mL
MIC90 ([3]; read-out: MIC90): < 16 µg/mL
MIC50 ([4]; read-out: MIC50): < 16 µg/mL
MIC90 ([4]; read-out: MIC90): < 16 µg/mL
MIC50 ([5]; read-out: MIC50): < 16 µg/mL
MIC90 ([5]; read-out: MIC90): < 16 µg/mL
MIC50 ([6]; read-out: MIC50): < 16 µg/mL
MIC90 ([6]; read-out: MIC90): < 16 µg/mL
MIC [7]: < 16 µg/mL
MIC [8]: < 16 µg/mL
MIC ([9]; Klebsiella pneumoniae, strain AKPN1246, MDR Clinical isolate (CDC CRE panel), CDC AR Bank 0139): < 16 µg/mL
Activity (MIC) ([9]; strain AKPN1250, MDR Clinical isolate (CDC CRE panel), CDC AR Bank 0143): + (MIC threshold for positive activity (+) is ≤16 μg/mL)
Activity (MIC) ([9]; strain AKPN1253, MDR Clinical isolate (CDC CRE panel), CDC AR Bank 0148): + (MIC threshold for positive activity (+) is ≤16 μg/mL)
Activity (MIC) ([9]; strain AKPN1255, MDR Clinical isolate (CDC CRE panel), CDC AR Bank 0153): + (MIC threshold for positive activity (+) is ≤16 μg/mL)
MIC [10]: < 16 µg/mL
MIC [11]: < 16 µg/mL
MIC ([12]; read-out: Activity (MIC), strain NABA0007, ΔadeJK efflux): < 16 µg/mL
MIC ([12]; read-out: Activity (MIC), strain NABA1427, MDR Clinical isolate): < 16 µg/mL
MIC ([12]; read-out: Activity (MIC), strain NABA1433, MDR Clinical isolate): < 16 µg/mL
MIC ([12]; read-out: Activity (MIC), strain NABA1434, MDR Clinical isolate): < 16 µg/mL
MIC ([12]; read-out: Activity (MIC), strain NABA1436, MDR Clinical isolate): < 16 µg/mL
MIC ([12]; read-out: Activity (MIC), strain NABA1437, MDR Clinical isolate): < 16 µg/mL
MIC ([12]; read-out: Activity (MIC), strain NABA1438, MDR Clinical isolate): < 16 µg/mL
MIC ([12]; read-out: Activity (MIC), strain NABA1439, MDR Clinical isolate): < 16 µg/mL
MIC ([12]; read-out: Activity (MIC), strain NABA1448, MDR Clinical isolate): < 16 µg/mL
MIC ([12]; read-out: Activity (MIC), strain NABA1449, MDR Clinical isolate): < 16 µg/mL
MIC ([12]; read-out: Activity (MIC), strain NABA1450, MDR Clinical isolate): < 16 µg/mL
MIC ([12]; strain NABA0006, WT parent, read-out: Activity (MIC)): < 16 µg/mL
MIC ([12]; strain NABA0020, AME negative strain, read-out: Activity (MIC)): < 16 µg/mL
MIC [13]: < 16 µg/mL
MIC ([14]; read-out: Activity (MIC), strain AECO1225, MDR Clinical isolate (CDC CRE panel), CDC AR Bank 0118): < 16 µg/mL
MIC ([14]; read-out: Activity (MIC), strain AECO1226, MDR Clinical isolate (CDC CRE panel), CDC AR Bank 0119): < 16 µg/mL
MIC ([14]; read-out: Activity (MIC), strain AECO1227, MDR Clinical isolate (CDC CRE panel), CDC AR Bank 0128): < 16 µg/mL
MIC ([14]; read-out: Activity (MIC), strain NECO0003, ΔtolC): < 16 µg/mL
MIC ([14]; read-out: Activity (MIC), strain NECO0245, ArmA): < 16 µg/mL
MIC ([14]; strain NECO0001, WT QC, read-out: Activity (MIC)): < 16 µg/mL
MIC ([14]; strain NECO0002, WT, read-out: Activity (MIC)): < 16 µg/mL
MIC ([14]; strain NECO0243, empty vector, read-out: Activity (MIC)): < 16 µg/mL
MIC ([14]; strain NECO0244, AAC(6')-Ib, read-out: Activity (MIC)): < 16 µg/mL
MIC ([14]; strain NECO0289, APH(3')-Ia, read-out: Activity (MIC)): < 16 µg/mL
MIC ([14]; strain NECO0302, AAC(3)-IIa, read-out: Activity (MIC)): < 16 µg/mL
MIC ([14]; strain NECO0350, AAC(2')-I, read-out: Activity (MIC)): < 16 µg/mL
MIC ([14]; strain NECO0359, ANT(4')-Ia, read-out: Activity (MIC)): < 16 µg/mL
MIC ([15]; ATCC29213, strain NSAU001, wild-type, QC, ATCC 29213): < 16 µg/mL
MIC ([15]; strain NSAU1004, MDR Clinical isolate): < 16 µg/mL
Activity (MIC) ([15]; strain NSAU1015, MDR Clinical isolate): + (MIC threshold for positive activity (+) is ≤16 μg/mL)
Activity (MIC) ([15]; strain NSAU1023, MDR Clinical isolate): + (MIC threshold for positive activity (+) is ≤16 μg/mL)
Activity (MIC) ([15]; strain NSAU1063, MDR Clinical isolate): + (MIC threshold for positive activity (+) is ≤16 μg/mL)
MIC ([16]; read-out: Activity (MIC), strain NPAE0006, Efflux KO, Aph(3')-IIb): < 16 µg/mL
MIC ([16]; read-out: Activity (MIC), strain NPAE0010, MexXY over-expressed, Aph(3')-IIb): < 16 µg/mL
MIC ([16]; read-out: Activity (MIC), strain NPAE1288, MDR Clinical isolate): < 16 µg/mL
MIC ([16]; read-out: Activity (MIC), strain NPAE1293, MDR Clinical isolate): < 16 µg/mL
MIC ([16]; read-out: Activity (MIC), strain NPAE1299, MDR Clinical isolate): < 16 µg/mL
MIC ([16]; read-out: Activity (MIC), strain NPAE1302, MDR Clinical isolate): < 16 µg/mL
MIC ([16]; read-out: Activity (MIC), strain NPAE1303, MDR Clinical isolate): < 16 µg/mL
MIC ([16]; read-out: Activity (MIC), strain NPAE1308, MDR Clinical isolate): < 16 µg/mL
MIC ([16]; read-out: Activity (MIC), strain NPAE1310, MDR Clinical isolate): < 16 µg/mL
MIC ([16]; read-out: Activity (MIC), strain NPAE1313, MDR Clinical isolate): < 16 µg/mL
MIC ([16]; read-out: Activity (MIC), strain NPAE1316, MDR Clinical isolate): < 16 µg/mL
MIC ([16]; read-out: Activity (MIC), strain NPAE1323, MDR Clinical isolate): < 16 µg/mL
MIC ([16]; strain NPAE0001, WT Aph(3')-IIb, QC, read-out: Activity (MIC)): < 16 µg/mL
MIC ([16]; strain NPAE0002, WT Aph(3')-IIb, read-out: Activity (MIC)): < 16 µg/mL
MIC ([16]; strain NPAE0359, aph(3')-IIb KO (tetR), read-out: Activity (MIC)): < 16 µg/mL
